# According to EP2951180B1, “2,6,7,8 SUBSTITUTED PURINES AS HDM2 INHIBITORS” (Merck Sharp & Dohme Corp., priority 2013, dated 2014):
# Where two headings read alike, the source gives them in different places.
# Target: T1, HDM2 (Homo sapiens, UniProt Q00987)
# T1 construct: Thioredoxin (N); made in house; host or cells: E. coli strain BL21(DE3)Rosetta
# Test: HDM2 FRET assay (inhibition of binding of FITC labeled p53-pocket peptide to HDM2)
# Settings: read-out: FRET IC50
# How it was run: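 Final: 0.5 nM His-HDM2, 3 nM FITC peptide, 0.25 nM Tb anti-His Ab; PBS, 0.01% BSA, 0.01% Tween-20; 0.1% DMSO.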
# T1 sequence (Q00987 17-125): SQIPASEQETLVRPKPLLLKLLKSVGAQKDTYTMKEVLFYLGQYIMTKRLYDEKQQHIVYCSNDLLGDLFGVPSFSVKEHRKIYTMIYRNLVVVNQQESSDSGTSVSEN
SMILES,IC50 (Table 9),IC50 (Table 10)
"C[C@@H](Nc1nc(-c2noc(=O)[nH]2)nc2nc(N3CCCCC3c3ccc(F)cc3)n(Cc3ccc(C(F)(F)F)cc3)c12)C1CCC1 (stereo partly drawn) [Example 9.112, 3-(6-{[(1R)-1-cyclobutylethyl]amino}-8-[2-(4-fluorophenyl)piperidin-1-yl]-7-[4-(trifluoromethyl)benzyl]-7H-purin-2-yl)-1,2,4-oxadiazol-5(4H)-one]",9.55 nM,
"C[C@@H](Nc1nc(-c2noc(=O)[nH]2)nc2nc(N3CCCCC3c3cccc(F)c3)n(Cc3ccc(C(F)(F)F)cc3)c12)C1CCC1 (stereo partly drawn) [Example 9.113, 3-(6-{[(1R)-1-cyclobutylethyl]amino}-8-[2-(3-fluorophenyl)piperidin-1-yl]-7-[4-(trifluoromethyl)benzyl]-7H-purin-2-yl)-1,2,4-oxadiazol-5(4H)-one]",25.9 nM,
"C[C@@H](Nc1nc(C(=O)O)nc2nc(N3CCCCC3c3cccnc3)n(Cc3ccc(C(F)(F)F)cc3)c12)C1CCC1 (stereo partly drawn) [Example 9.114, 6-{[(1R)-1-cyclobutylethyl]amino}-8-(2-pyridin-3-ylpiperidin-1-yl)-7-[4-(trifluoromethyl)benzyl]-7H-purine-2-carboxylic acid]",110 nM,
"C[C@@H](Nc1nc(C(=O)O)nc2nc(N3CCCCC3c3ccncc3)n(Cc3ccc(C(F)(F)F)cc3)c12)C1CCC1 (stereo partly drawn) [Example 9.115, 6-{[(1R)-1-cyclobutylethyl]amino}-8-(2-pyridin-4-ylpiperidin-1-yl)-7-[4-(trifluoromethyl)benzyl]-7H-purine-2-carboxylic acid]",16.6 nM,
"C[C@@H](Nc1nc(C(=O)O)nc2nc(N3CCCCC3c3cccc(F)c3)n(Cc3ccc(C(F)(F)F)cc3)c12)C1CCC1 (stereo partly drawn) [Example 9.116, 6-{[(1R)-1-cyclobutylethyl]amino}-8-[2-(3-fluorophenyl)piperidin-1-yl]-7-[4-(trifluoromethyl)benzyl]-7H-purine-2-carboxylic acid]",14 nM,
"C[C@@H](Nc1nc(C(=O)O)nc2nc(N3CCCCC3c3ccc(F)cc3)n(Cc3ccc(C(F)(F)F)cc3)c12)C1CCC1 (stereo partly drawn) [Example 9.117, 6-{[(1R)-1-cyclobutylethyl]amino}-8-[2-(4-fluorophenyl)piperidin-1-yl]-7-[4-(trifluoromethyl)benzyl]-7H-purine-2-carboxylic acid]",10.6 nM,
"C[C@@H](Nc1nc(C(=O)O)nc2nc(N3CCOCC3)n(Cc3ccc(C(F)(F)F)cc3)c12)C1CCC1 [Example 9.118, 6-{[(1R)-1-cyclobutylethyl]amino}-8-morpholin-4-yl-7-[4-(trifluoromethyl)benzyl]-7H-purine-2-carboxylic acid]",51.8 nM,
"CC(C)C1CCCCN1c1nc2nc(C(=O)O)nc(N[C@H](C)C3CCC3)c2n1Cc1ccc(C(F)(F)F)cc1 (stereo partly drawn) [Example 9.119, 6-{[(1R)-1-cyclobutylethyl]amino}-8-[2-(1-methylethyl)piperidin-1-yl]-7-[4-(trifluoromethyl)benzyl]-7H-purine-2-carboxylic acid]",9.16 nM,
"CC(C)CC1CCCCN1c1nc2nc(C(=O)O)nc(N[C@H](C)C3CCC3)c2n1Cc1ccc(C(F)(F)F)cc1 (stereo partly drawn) [Example 9.120, 6-{[(1R)-1-cyclobutylethyl]amino}-8-[2-(2-methylpropyl)piperidin-1-yl]-7-[4-(trifluoromethyl)benzyl]-7H-purine-2-carboxylic acid]",5.32 nM,
"C[C@@H](Nc1nc(C(=O)O)nc2nc(N3CCc4ccccc4C3)n(Cc3ccc(C(F)(F)F)cc3)c12)C1CCC1 [Example 9.121, 6-{[(1R)-1-cyclobutylethyl]amino}-8-(3,4-dihydroisoquinolin-2(1H)-yl)-7-[4-(trifluoromethyl)benzyl]-7H-purine-2-carboxylic acid]",10.6 nM,
"C[C@@H](Nc1nc(C(=O)O)nc2nc(N3CCCCC3C3CCCCC3)n(Cc3ccc(C(F)(F)F)cc3)c12)C1CCC1 (stereo partly drawn) [Example 9.122, 6-{[(1R)-1-cyclobutylethyl]amino}-8-(2-cyclohexylpiperidin-1-yl)-7-[4-(trifluoromethyl)benzyl]-7H-purine-2-carboxylic acid]",4.59 nM,
"C[C@@H](Nc1nc(C(=O)O)nc2nc(NC(C)(C)c3ccccc3)n(Cc3ccc(C(F)(F)F)cc3)c12)C1CCC1 [Example 9.123, 6-{[(1R)-1-cyclobutylethyl]amino}-8-[(1-methyl-1-phenylethyl)amino]-7-[4-(trifluoromethyl)benzyl]-7H-purine-2-carboxylic acid]",1.85 nM,
"C[C@@H](Nc1nc(C(=O)O)nc2nc(N3CCCc4ccccc43)n(Cc3ccc(C(F)(F)F)cc3)c12)C1CCC1 [Example 9.124, 6-{[(1R)-1-cyclobutylethyl]amino}-8-(3,4-dihydroquinolin-1(2H)-yl)-7-[4-(trifluoromethyl)benzyl]-7H-purine-2-carboxylic acid]",10.4 nM,
"C[C@@H]1COCCN1c1nc2nc(-c3noc(=O)[nH]3)nc(N[C@H](C)C3CCC3)c2n1Cc1ccc(C(F)(F)F)cc1 [Example 9.125, 3-(6-{[(1R)-1-cyclobutylethyl]amino}-8-[(3R)-3-methylmorpholin-4-yl]-7-[4-(trifluoromethyl)benzyl]-7H-purin-2-yl)-1,2,4-oxadiazol-5(4H)-one]",6.72 nM,
"C[C@@H](Nc1nc(C(=O)O)nc2nc(COc3ccccc3)n(Cc3ccc(C(F)(F)F)cc3)c12)C1CCC1 [Example 10.1, (R)-6-((1-cyclobutylethyl)amino)-8-(phenoxymethyl)-7-(4-(trifluoromethyl)benzyl)-7H-purine-2-carboxylic acid]",,37.5 nM
"C[C@@H](Nc1nc(C(=O)O)nc2nc(COCc3ccccc3)n(Cc3ccc(C(F)(F)F)cc3)c12)C1CCC1 [Example 10.2, (R)-8-((benzyloxy)methyl)-6-((1-cyclobutylethyl)amino)-7-(4-(trifluoromethyl)benzyl)-7H-purine-2-carboxylic acid]",,21.6 nM
"CC(C)CC(=O)N(C)c1nc2nc(C(=O)O)nc(N[C@H](C)C3CCC3)c2n1Cc1ccc(C(F)(F)F)cc1 [Example 10.3, (R)-6-((1-cyclobutylethyl)amino)-8-(N,3-dimethylbutanamido)-7-(4-(trifluoromethyl)benzyl)-7H-purine-2-carboxylic acid]",,69.8 nM
"C[C@@H](Nc1nc(C(=O)O)nc2nc(N(C)C(=O)C3CCCCC3)n(Cc3ccc(C(F)(F)F)cc3)c12)C1CCC1 [Example 10.4, (R)-6-((1-cyclobutylethyl)amino)-8-(N-methylcyclohexanecarboxamido)-7-(4-(trifluoromethyl)benzyl)-7H-purine-2-carboxylic acid]",,14.1 nM
"CC(C)COC(C)c1nc2nc(C(=O)O)nc(N[C@H](C)C3CCC3)c2n1Cc1ccc(C(F)(F)F)cc1 (stereo partly drawn) [Example 10.5, 6-(((R)-1-cyclobutylethyl)amino)-8-(1-isobutoxyethyl)-7-(4-(trifluoromethyl)benzyl)-7H-purine-2-carboxylic acid]",,39.4 nM
"CC(O)c1nc2nc(C(=O)O)nc(N[C@H](C)C3CCC3)c2n1Cc1ccc(C(F)(F)F)cc1 (stereo partly drawn) [Example 10.7, 6-(((R)-1-Cyclobutylethyl)amino)-8-(1-hydroxyethyl)-7-(4-(trifluoromethyl)benzyl)-7H-purine-2-carboxylic acid]",,140 nM
"CC(Oc1ccccc1)c1nc2nc(C(=O)O)nc(N[C@H](C)C3CCC3)c2n1Cc1ccc(C(F)(F)F)cc1 (stereo partly drawn) [Example 10.8, 6-(((R)-1-Cyclobutylethyl)amino)-8-(1-phenoxyethyl)-7-(4-(trifluoromethyl)benzyl)-7H-purine-2-carboxylic acid]",,28.9 nM
"CC(C)CN(C)C(C)c1nc2nc(C(=O)O)nc(N[C@H](C)C3CCC3)c2n1Cc1ccc(C(F)(F)F)cc1 (stereo partly drawn) [Example 10.9, 6-(((R)-1-cyclobutylethyl)amino)-8-(1-(isobutyl(methyl)amino)ethyl)-7-(4-(trifluoromethyl)benzyl)-7H-purine-2-carboxylic acid]",,21.2 nM
"CC(c1nc2nc(C(=O)O)nc(N[C@H](C)C3CCC3)c2n1Cc1ccc(C(F)(F)F)cc1)N(C)c1ccccc1 (stereo partly drawn) [Example 10.10, 6-(((R)-1-cyclobutylethyl)amino)-8-(1-(methyl(phenyl)amino)ethyl)-7-(4-(trifluoromethyl)benzyl)-7H-purine-2-carboxylic acid]",,68.8 nM
"CC(c1nc2nc(C(=O)O)nc(N[C@H](C)C3CCC3)c2n1Cc1ccc(C(F)(F)F)cc1)N(C)C1CCCCC1 (stereo partly drawn) [Example 10.11, 6-(((R)-1-cyclobutylethyl)amino)-8-(1-(cyclohexyl(methyl)amino)ethyl)-7-(4-(trifluoromethyl)benzyl)-7H-purine-2-carboxylic acid]",,22.1 nM
"CC(c1nc2nc(C(=O)O)nc(N[C@H](C)C3CCC3)c2n1Cc1ccc(C(F)(F)F)cc1)N(C)Cc1ccccc1 (stereo partly drawn) [Example 10.12, 8-(1-(benzyl(methyl)amino)ethyl)-6-(((R)-1-cyclobutylethyl)amino)-7-(4-(trifluoromethyl)benzyl)-7H-purine-2-carboxylic acid]",,139 nM
"C[C@@H](Nc1nc(C(=O)O)nc2nc(CN(C)Cc3ccccc3)n(Cc3ccc(C(F)(F)F)cc3)c12)C1CCC1 [Example 10.13, (R)-8-((benzyl(methyl)amino)methyl)-6-((1-cyclobutylethyl)amino)-7-(4-(trifluoromethyl)benzyl)-7H-purine-2-carboxylic acid]",,47.7 nM
"C[C@@H](Nc1nc(C(=O)O)nc2nc(CN(C)C3CCCCC3)n(Cc3ccc(C(F)(F)F)cc3)c12)C1CCC1 [Example 10.14, (R)-6-((1-cyclobutylethyl)amino)-8-((cyclohexyl(methyl)amino)methyl)-7-(4-(trifluoromethyl)benzyl)-7H-purine-2-carboxylic acid]",,4.53 nM
"C[C@@H](Nc1nc(C(=O)O)nc2nc(C(=O)N[C@@H](CO)c3ccccc3)n(Cc3ccc(C(F)(F)F)cc3)c12)C1CCC1 [Example 10.15, 6-(((R)-1-cyclobutylethyl)amino)-8-(((R)-2-hydroxy-1-phenylethyl)carbamoyl)-7-(4-(trifluoromethyl)benzyl)-7H-purine-2-carboxylic acid]",,202 nM
